For the assay, the target named is autotaxin (ATX) (Homo sapiens, UniProt Q13822). The format is biochemical.

For orientation: Ki means a dissociation constant, usually derived from enzyme kinetics or from competition with a known ligand. A higher Ki goes with weaker binding.

VPC8a202: the inhibition constant Ki is ~390 nM.
